According to patent publication US10934310B2, “Inhibitors of Bruton's tyrosine kinase and method of their use” (JANSSEN PHARMACEUTICA NV, priority 2015, dated 2021):

target: unphosphorylated-BTK kinase domain (UP-BTK), GST-tagged human BTK (389-659aa) (Homo sapiens (Human), UniProt Q06187); assay: BTK Kinase Lanthascreen Binding Assay; settings: Lanthascreen binding, 60 minutes incubation; pIC50 = negative log of the IC50 in molar
Description: BTK Kinase Lanthascreen Binding Assay:
A BTK kinase lanthascreen binding assay monitors compound binding to unphosphorylated-BTK kinase domain (UP-BTK), by competing with a fluorescent labeled tracer. […] Data were analyzed using Xlfit™ version 5.3 from ID Business Solutions (Guildford), Microsoft Excel add-in. pIC50 refers to the negative log of the IC50 in molar.

unphosphorylated-BTK kinase domain (UP-BTK), GST-tagged human BTK (389-659aa), sequence (Q06187 389-659): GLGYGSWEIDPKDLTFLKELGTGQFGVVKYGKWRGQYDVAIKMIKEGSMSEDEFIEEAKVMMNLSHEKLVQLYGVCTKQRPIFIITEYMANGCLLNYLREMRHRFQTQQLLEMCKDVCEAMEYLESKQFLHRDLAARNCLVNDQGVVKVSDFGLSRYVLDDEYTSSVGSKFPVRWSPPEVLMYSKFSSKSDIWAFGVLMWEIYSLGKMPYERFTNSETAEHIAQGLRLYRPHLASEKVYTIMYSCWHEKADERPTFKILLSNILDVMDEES

BTK_I_binding pIC50 | Compound
6.84 | C=CC(=O)N[C@H]1CCCC[C@H]1NC(=O)c1sc2nccc3c2c1NC(=O)N3c1ccc(Oc2ccccn2)cc1 [Example 442, N-((1R,2S)-2-Acrylamidocyclohexyl)-4-oxo-5-(4-(pyridin-2-yloxy)phenyl)-4,5-dihydro-3H-1-thia-3,5,8-triazaacenaphthylene-2-carboxamide]
6.32 | Cc1cc(OC(C)C)ccc1N1C(=O)Nc2c(C(=O)N[C@@H]3CCC[C@@H]3N)sc3nccc1c23 [Example 453, N-((1R,2S)-2-Aminocyclopentyl)-5-(4-isopropoxy-2-methylphenyl)-4-oxo-4,5-dihydro-3H-1-thia-3,5,8-triazaacenaphthylene-2-carboxamide]
5.81 | N[C@@H]1CCCC[C@@H]1NC(=O)c1sc2nccc3c2c1NC(=O)N3c1ccc(Oc2ccccc2)cc1 [Example 457, N-((1S,2R)-2-Aminocyclohexyl)-4-oxo-5-(4-phenoxyphenyl)-4,5-dihydro-3H-1-thia-3,5,8-triazaacenaphthylene-2-carboxamide]
7.53 | C=CC(=O)N[C@H]1CCC[C@@H]1NC(=O)c1sc2nccc3c2c1NC(=O)N3c1ccc(Oc2ccccc2)cc1C [Example 458, N-((1S,2S)-2-Acrylamidocyclopentyl)-5-(2-methyl-4-phenoxyphenyl)-4-oxo-4,5-dihydro-3H-1-thia-3,5,8-triazaacenaphthylene-2-carboxamide]
7.13 | C=CC(=O)N[C@@H]1CCC[C@@H]1NC(=O)c1sc2nccc3c2c1NC(=O)N3c1ccc(Oc2ccccc2)cc1C [Example 459, N-((1S,2R)-2-Acrylamidocyclopentyl)-5-(2-methyl-4-phenoxyphenyl)-4-oxo-4,5-dihydro-3H-1-thia-3,5,8-triazaacenaphthylene-2-carboxamide]
6.78 | Cc1cc(Oc2cccc(COc3ccccc3C#N)c2)ccc1N1C(=O)Nc2c(C(=O)NC3CCCCC3)sc3nccc1c23 [Example 460, 5-(4-(3-((2-Cyanophenoxy)methyl)phenoxy)-2-methylphenyl)-N-cyclohexyl-4-oxo-4,5-dihydro-3H-1-thia-3,5,8-triazaacenaphthylene-2-carboxamide]
6.33 | Cc1cc(Oc2ccccc2)ccc1N1C(=O)Nc2c(C(=O)NC3CCCCC3)sc3nccc1c23 [Example 462, N-Cyclohexyl-5-(2-methyl-4-phenoxyphenyl)-4-oxo-4,5-dihydro-3H-1-thia-3,5,8-triazaacenaphthylene-2-carboxamide]
6.22 | O=C(NC1CCCCC1)c1sc2nccc3c2c1NC(=O)N3c1ccc(Oc2ccccc2)cc1 [Example 463, N-Cyclohexyl-4-oxo-5-(4-phenoxyphenyl)-4,5-dihydro-3H-1-thia-3,5,8-triazaacenaphthylene-2-carboxamide]
7.59 | C=CC(=O)N[C@H]1CCC[C@H]1NC(=O)c1sc2nccc3c2c1NC(=O)N3c1ccc(Oc2ccccn2)cn1 [Example 480, N-((1R,2S)-2-Acrylamidocyclopentyl)-4-oxo-5-(5-(pyridin-2-yloxy)pyridin-2-yl)-4,5-dihydro-3H-1-thia-3,5,8-triazaacenaphthylene-2-carboxamide]

The next lines start with the molecule.

Compound | BTK_I_binding pIC50
C=CC(=O)N[C@H]1CCC[C@H]1NC(=O)c1sc2nccc3c2c1NC(=O)N3c1cccc(C(C)C)c1 [Example 438, N-((1R,2S)-2-Acrylamidocyclopentyl)-5-(3-isopropylphenyl)-4-oxo-4,5-dihydro-3H-1-thia-3,5,8-triazaacenaphthylene-2-carboxamide] | 8.02
CC(=O)N[C@@H]1CC[C@H](NC(=O)c2sc3nccc4c3c2NC(=O)N4c2ccc(OC(C)C)cc2C)C1 [Example 454, N-((1S,3R)-3-Acetamidocyclopentyl)-5-(4-isopropoxy-2-methylphenyl)-4-oxo-4,5-dihydro-3H-1-thia-3,5,8-triazaacenaphthylene-2-carboxamide] | 6.21
Cc1cc(Oc2cccc(COc3ccccc3C#N)c2)ccc1N1C(=O)Nc2c(NC(=O)C3CC3)sc3nccc1c23 [Example 461, N-(5-(4-(3-((2-Cyanophenoxy)methyl)phenoxy)-2-methylphenyl)-4-oxo-4,5-dihydro-3H-1-thia-3,5,8-triazaacenaphthylen-2-yl)cyclopropanecarboxamide] | 6.46
C=CC(=O)N[C@H]1CCC[C@H]1NC(=O)c1sc2nccc3c2c1NC(=O)N3c1cnc(Oc2ncccn2)cc1C [Example 465, N-((1R,2S)-2-Acrylamidocyclopentyl)-5-(4-methyl-6-(pyrimidin-2-yloxy)pyridin-3-yl)-4-oxo-4,5-dihydro-3H-1-thia-3,5,8-triazaacenaphthylene-2-carboxamide] | 7.25
C=CC(=O)N[C@H]1CCC[C@H]1NC(=O)c1sc2nccc3c2c1NC(=O)N3c1ccc(Oc2ncccn2)nc1C [Example 468, N-((1R,2S)-2-Acrylamidocyclopentyl)-5-(2-methyl-6-(pyrimidin-2-yloxy)pyridin-3-yl)-4-oxo-4,5-dihydro-3H-1-thia-3,5,8-triazaacenaphthylene-2-carboxamide] | 6.52
C=CC(=O)N[C@H]1CCC[C@H]1NC(=O)c1sc2nccc3c2c1NC(=O)N3c1ccc(Oc2cccnn2)cn1 [Example 476, N-((1R,2S)-2-Acrylamidocyclopentyl)-4-oxo-5-(5-(pyridazin-3-yloxy)pyridin-2-yl)-4,5-dihydro-3H-1-thia-3,5,8-triazaacenaphthylene-2-carboxamide] | 6.20
C=CC(=O)N[C@H]1CCC[C@H]1NC(=O)c1sc2nccc3c2c1NC(=O)N3c1ccc(-n2ccccc2=O)nc1C [Example 477, N-((1R,2S)-2-Acrylamidocyclopentyl)-5-(6′-methyl-2-oxo-2H-[1,2′-bipyridin]-5′-yl)-4-oxo-4,5-dihydro-3H-1-thia-3,5,8-triazaacenaphthylene-2-carboxamide] | 6.85
C=CC(=O)N[C@H]1CCC[C@H]1NC(=O)c1sc2nccc3c2c1NC(=O)N3c1ccc(Oc2ccc(C)nc2)cn1 [Example 481, N-((1R,2S)-2-Acrylamidocyclopentyl)-5-(5-((6-methylpyridin-3-yl)oxy)pyridin-2-yl)-4-oxo-4,5-dihydro-3H-1-thia-3,5,8-triazaacenaphthylene-2-carboxamide] | 7.33
C=CC(=O)N[C@H]1CCC[C@H]1NC(=O)c1sc2nccc3c2c1NC(=O)N3c1ccc(Oc2cncnc2)cc1C [Example 482, N-((1R,2S)-2-Acrylamidocyclopentyl)-5-(2-methyl-4-(pyrimidin-5-yloxy)phenyl)-4-oxo-4,5-dihydro-3H-1-thia-3,5,8-triazaacenaphthylene-2-carboxamide] | 7.79
C=CC(=O)N[C@H]1CCC[C@H]1NC(=O)c1sc2nccc3c2c1NC(=O)N3c1cnc(Oc2cccc(C)n2)cc1C [Example 483, N-((1R,2S)-2-Acrylamidocyclopentyl)-5-(4-methyl-6-((6-methylpyridin-2-yl)oxy)pyridin-3-yl)-4-oxo-4,5-dihydro-3H-1-thia-3,5,8-triazaacenaphthylene-2-carboxamide] | 7.49
C=CC(=O)N[C@H]1CCC[C@H]1NC(=O)c1sc2nccc3c2c1NC(=O)N3c1ccc(Oc2ncccn2)cn1 [Example 484, N-((1R,2S)-2-Acrylamidocyclopentyl)-4-oxo-5-(5-(pyrimidin-2-yloxy)pyridin-2-yl)-4,5-dihydro-3H-1-thia-3,5,8-triazaacenaphthylene-2-carboxamide] | 6.93
C=CC(=O)N[C@H]1CCC[C@H]1NC(=O)c1sc2nccc3c2c1NC(=O)N3c1ccc(Oc2cncnc2)cn1 [Example 485, N-((1R,2S)-2-Acrylamidocyclopentyl)-4-oxo-5-(5-(pyrimidin-5-yloxy)pyridin-2-yl)-4,5-dihydro-3H-1-thia-3,5,8-triazaacenaphthylene-2-carboxamide] | 6.59

same assay, conditions: read-out: BTK_I_binding pIC50 (converted)

Compound | IC50 [µM]
CC(C)c1cccc(N2C(=O)Nc3c(C(=O)N[C@@H]4CCC[C@@H]4N)sc4nccc2c34)c1 [Example 455, N-((1R,2S)-2-Aminocyclopentyl)-5-(3-isopropylphenyl)-4-oxo-4,5-dihydro-3H-1-thia-3,5,8-triazaacenaphthylene-2-carboxamide] | > 1
Cc1cc(OC(C)C)ccc1N1C(=O)Nc2c(C(=O)N[C@@H]3CCC[C@H]3O)sc3nccc1c23 [Example 456, N-((1R,2R)-2-Hydroxycyclopentyl)-5-(4-isopropoxy-2-methylphenyl)-4-oxo-4,5-dihydro-3H-1-thia-3,5,8-triazaacenaphthylene-2-carboxamide] | > 1
C=CC(=O)N[C@H]1CCCC[C@H]1NC(=O)c1sc2nccc3c2c1NC(=O)N3c1cnc(Oc2cccnn2)cc1C [Example 467, N-((1R,2S)-2-Acrylamidocyclohexyl)-5-(4-methyl-6-(pyridazin-3-yloxy)pyridin-3-yl)-4-oxo-4,5-dihydro-3H-1-thia-3,5,8-triazaacenaphthylene-2-carboxamide] | > 1
C=CC(=O)N[C@H]1CCC[C@H]1NC(=O)c1sc2nccc3c2c1NC(=O)N3c1ccc(Oc2ccccn2)nc1C [Example 478, N-((1R,2S)-2-Acrylamidocyclopentyl)-5-(2-methyl-6-(pyridin-2-yloxy)pyridin-3-yl)-4-oxo-4,5-dihydro-3H-1-thia-3,5,8-triazaacenaphthylene-2-carboxamide] | 0.0229
C=CC(=O)N[C@H]1CCC[C@H]1NC(=O)c1sc2nccc3c2c1NC(=O)N3c1ccc(Oc2cccc(C)n2)cn1 [Example 479, N-((1R,2S)-2-Acrylamidocyclopentyl)-5-(5-((6-methylpyridin-2-yl)oxy)pyridin-2-yl)-4-oxo-4,5-dihydro-3H-1-thia-3,5,8-triazaacenaphthylene-2-carboxamide] | 0.0288
